# From US20120295982A1, “TREATING HUMAN MALE COPD PATIENTS WITH ORAL BEDORADRINE” (MediciNova, Inc., priority 2011, published 2012)
# Counter-ions that a name gives are not always drawn.
# Legend:
# [1] = test system: patients with acute exacerbations of asthma (AEA); assay: Placebo-controlled dose-escalating test of i.v. MN-221 plus standard of care in acute exacerbations of asthma (emergency department); assay type: in vivo, human
# Procedure: This example provides certain preferred oral dosages for treating male COPD patients according to this invention. Initially, the efficacy and safety of administering intravenous MN-221 in combination with standard of care (SOC) for treating acute exacerbations of asthma (AEA) in an emergency department (ED) setting is determined. The testing was performed in a randomized, placebo-controlled, dose-escalating, setting. Twenty nine patients received SOC (nebulized albuterol and ipratropium plus oral corticosteroid). Patients with FEV1≦55% of predicted were randomized to MN-221 (240 or 450 μg infused over 15 min or 1080 μg over 2 hr) or Placebo. MN-221 was administered as follows: 16 μg/min for 15 min (total dose of 240 μg); 30 μg/min for 15 min (total dose of 450 μg); 16 μg/min for 15 min+8 μg/min for 105 min (total dose of 1,080 μg); and 2 patients received total dose of 1,995 μg. Safety, efficacy and PK parameters were monitored hourly throughout a 5 hr treatment period and a 24 hr follow-up visit. Nebulized albuterol (2.5 mg) and/or ipratropium (0.5 mg) was available hourly during screening and treatment phases. Efficacy endpoints included spirometry, dyspnea indexing, albuterol use, and hospitalization rates. The testing was completed with 13 patients (n=13) in SOC+Placebo and 16 patients (n=16) receiving SOC+MN-221; 5 at 240 μg, 6 at 450 μg, and 5 intended for a 1080 μg dose. Patients received Standard of Care (SOC) treatment in addition to adjunctive treatment with MN-221 or placebo. MN-221 was well-tolerated.
# [2] = Phase I open-label single-dose crossover oral bioavailability / PK test of bedoradrine sulfate in healthy volunteers; assay type: in vivo, human; details: for clearance: CL; for Vd: Vss; for half-life: t½
# Procedure: The test was an open-label, randomized, crossover, single dose test of 600 μg (0.6 mg) bedoradrine sulfate in liquid form administered orally and of 300 μg (0.3 mg) bedoradrine sulfate administered by i.v. infusion. All subjects were in an overnight fasting state. Four male and four female subjects were enrolled in the test and received two administration sequences: Day 1: n=4 received 15-minute intravenous infusion of bedoradrine sulfate (300 μg), the other 4 received an oral administration of bedoradrine sulfate (600 μg); Day 8: the 4 subjects administered i.v. MN-221 on Day 1, received oral bedoradrine sulfate and the 4 subjects administered orally with MN-221 on Day 1, receive i.v. bedoradrine sulfate. Subjects were domiciled in the clinical research unit (CRU) for two nights, beginning on Day minus one (−1), one day prior to dosing. First dosing occurred in the morning of Day 1. Subjects were discharged from the CRU approximately 24 hours after dosing (Day 2). There was a one-week washout between doses and subjects returned to the CRU (Day 7) and were domiciled for two days. On the morning of Day 8, subjects received the opposite dosing state (from Day 1) and subjects were then discharged from the CRU approximately 24 hours after dosing (Day 9). Blood samples for plasma selection and bioanalysis were collected on the dosing days before dosing (baseline) and at 0.25, 1, 1.5, 2, 3, 4, 6, 9, 12, and 24 hr after dosing. The bioanalytical results were obtained following HPLC/MS/MS procedures. The limit of quantitation (LLOQ) for these methods was 30.3 picogram (pg)/mL. Plasma MN-221 concentrations were tabulated separately by subject and sampling time and summarized by descriptive statistics. Descriptive statistics included the sample size, mean, standard deviation, median, range, and the coefficient of variation (CV %). Mean plasma concentration-time profiles were illustrated graphically. All plasma concentrations below the limit of quantitation (BLQ) values occurring at predose and up to the first measurable concentration may otherwise be imputed as 1 pg/mL in some analyses or LLOQ. Pharmacokinetic parameters were calculated from individual plasma concentrations-time data by model-independent analysis methods using WinNonlin™. The following parameters were calculated: Cmax (observed maximum plasma concentration), tmax (observed time of maximum plasma concentration), t1/2 (terminal half-life calculated as ln(2)/λz), AUC0-24 (area under the plasma concentration-time curve calculated using the linear trapezoidal rule from time zero to time 24 hr), vss (volume of distribution at steady state), Cl (clearance), and Oral F % (% oral bioavailability). All pharmacokinetic parameters were summarized using descriptive statistics that included the sample size, mean, standard deviation, median, range, and coefficient of variation. Select t-test or non-parametric statistical analysis was optional.
# [3] = both sexes, human, in vivo, iv, 300 ug, mean
# [4] = both sexes, human, in vivo, iv, 300 ug, median
# [5] = both sexes, human, in vivo, iv, 300 ug, range
# [6] = both sexes, human, in vivo, po, 600 ug, mean
# [7] = both sexes, human, in vivo, po, 600 ug, median
# [8] = both sexes, human, in vivo, po, 600 ug, range
# [9] = both, human, in vivo, po, 600 ug
# [10] = female, human, in vivo, po, 600 ug
# [11] = human one, in vivo, iv, 300 ug, individual subject
# [12] = human two, in vivo, iv, 300 ug, individual subject
structure (smiles),measurement,setting,value
"CN(C)C(=O)COc1ccc2c(c1)C[C@@H](NC[C@H](O)c1ccc(O)c(CCO)c1)CC2 [MN-221, bedoradrine sulfate]",heart rate relative to Placebo,[1]; all MN-221 group,minimally elevated
same,hospitalization rate,"[1]; all MN-221 group (4/16), i.v. plus SOC",25%
same,"FEV1 (% predicted), change from baseline in AUC1-5 hr, higher vs. Placebo",[1]; all MN-221 group vs. Placebo,43%
same,tolerability,"[1]; i.v. MN-221 240-1080 μg plus standard of care, AEA patients",well-tolerated
same,electrocardiograph (ECG) findings,[1]; i.v. MN-221 plus SOC,No abnormal electrocardiograph (ECG) findings were observed
same,intensity of the majority of adverse events,[1]; i.v. MN-221 plus SOC,mild to moderate in intensity
same,fold lower oral peak level than Cmax after i.v. dosing,[2]; 0.6 mg oral vs 0.3 mg i.v.,> 30 fold
same,AUC,"[2]; both sexes, human, in vivo, iv, 0.3 mg",~13 ng·h/mL
same,AUC(0-t),"[2]; both sexes, human, in vivo, iv, 300 ug, AUC 0-24 h, mean",13.2 ng·h/mL
same,AUC(0-t),"[2]; both sexes, human, in vivo, iv, 300 ug, AUC 0-24 h, median",14.1 ng·h/mL
same,AUC(0-t),"[2]; both sexes, human, in vivo, iv, 300 ug, AUC 0-24 h, range",9.31 to 15.5 ng·h/mL
same,clearance,[2]; [3],322 mL/min
same,clearance,[2]; [4],307 mL/min
same,clearance,[2]; [5],252 to 425 mL/min
same,Cmax,"[2]; both sexes, human, in vivo, iv, 300 ug, Cmax, mean",10.7 ng/mL
same,Cmax,"[2]; both sexes, human, in vivo, iv, 300 ug, Cmax, median",12.2 ng/mL
same,Cmax,"[2]; both sexes, human, in vivo, iv, 300 ug, Cmax, range",6.76 to 14.8 ng/mL
same,Tmax,[2]; [3],0.25 h
same,Tmax,[2]; [4],0.25 h
same,Vd,[2]; [3],222 L
same,Vd,[2]; [4],206 L
same,Vd,[2]; [5],149 to 325 L
same,half-life,[2]; [3],12.2 h
same,half-life,[2]; [4],12.5 h
same,half-life,[2]; [5],7.4 to 14.6 h
same,AUC(0-t),"[2]; both sexes, human, in vivo, po, 600 ug, AUC 0-24 h, mean",1.94 ng·h/mL
same,AUC(0-t),"[2]; both sexes, human, in vivo, po, 600 ug, AUC 0-24 h, median",1.85 ng·h/mL
same,AUC(0-t),"[2]; both sexes, human, in vivo, po, 600 ug, AUC 0-24 h, range",1.05 to 3.02 ng·h/mL
same,Cmax,"[2]; both sexes, human, in vivo, po, 600 ug, Cmax, mean",0.305 ng/mL
same,Cmax,"[2]; both sexes, human, in vivo, po, 600 ug, Cmax, median",0.301 ng/mL
same,Cmax,"[2]; both sexes, human, in vivo, po, 600 ug, Cmax, range",0.163 to 0.5 ng/mL
same,Tmax,[2]; [6],1.2 h
same,Tmax,[2]; [7],1.5 h
same,Tmax,[2]; [8],0.25 to 2 h
same,half-life,[2]; [6],16 h
same,half-life,[2]; [7],15.2 h
same,half-life,[2]; [8],11 to 23 h
same,fold lower AUC following oral dosing than at the i.v. dose,"[2]; both, human, in vivo",about 7 fold
same,time at which plasma concentrations peaked,"[2]; both, human, in vivo, iv",0.25 h
same,time to reach maximal plasma concentrations,"[2]; both, human, in vivo, po",≤ 2 h
same,"Tmax, median",[2]; [9],approximately 1.5 hr
same,"t½, mean",[2]; [9],16.1 h
same,AUC(0-t),"[2]; female, human, in vivo, iv, 300 ug, AUC0-24 h mean",14.9 ng·h/mL
same,AUC(0-t),"[2]; female, human, in vivo, iv, 300 ug, AUC0-24 h range",13.9 to 15.5 ng·h/mL
same,Cmax,"[2]; female, human, in vivo, iv, 300 ug, Cmax mean",13.1 ng/mL
same,Cmax,"[2]; female, human, in vivo, iv, 300 ug, Cmax range",12.1 to 14.8 ng/mL
same,oral F % mean,[2]; [10],4.9%
same,oral F % range,[2]; [10],3.4-6.1%
same,AUC(0-t),"[2]; female, human, in vivo, po, 600 ug, AUC0-24 h mean",1.45 ng·h/mL
same,AUC(0-t),"[2]; female, human, in vivo, po, 600 ug, AUC0-24 h range",1.05 to 1.79 ng·h/mL
same,Cmax,"[2]; female, human, in vivo, po, 600 ug, Cmax mean",0.221 ng/mL
same,Cmax,"[2]; female, human, in vivo, po, 600 ug, Cmax range",0.163 to 0.299 ng/mL
same,AUC(0-t),"[2]; human one, in vivo, iv, 300 ug, AUC 0-24 h, individual subject",10.7 ng·h/mL
same,clearance,[2]; [11],423 mL/min
same,Cmax,"[2]; human one, in vivo, iv, 300 ug, Cmax, individual subject",6.76 ng/mL
same,Tmax,[2]; [11],0.25 h
same,AUC(0-t),"[2]; human one, in vivo, po, 600 ug, AUC 0-24 h, individual subject",2.14 ng·h/mL
same,Tmax,"[2]; human one, in vivo, po, 600 ug, individual subject",1.5 h
same,AUC(0-t),"[2]; human two, in vivo, iv, 300 ug, AUC 0-24 h, individual subject",15.5 ng·h/mL
same,clearance,[2]; [12],252 mL/min
same,Cmax,"[2]; human two, in vivo, iv, 300 ug, Cmax, individual subject",14.8 ng/mL
same,Tmax,[2]; [12],0.25 h
same,Vd,[2]; [12],225 L
same,half-life,[2]; [12],14.6 h
same,AUC(0-t),"[2]; human two, in vivo, po, 600 ug, AUC 0-24 h, individual subject",1.05 ng·h/mL
same,Cmax,"[2]; human two, in vivo, po, 600 ug, Cmax, individual subject",0.163 ng/mL
same,oral F % in men relative to women,"[2]; human, in vivo, po, 600 ug",two-fold greater
same,AUC(0-t),"[2]; male, human, in vivo, iv, 300 ug, AUC0-24 h mean",11.5 ng·h/mL
same,AUC(0-t),"[2]; male, human, in vivo, iv, 300 ug, AUC0-24 h range",9.31 to 14.3 ng·h/mL
same,Cmax,"[2]; male, human, in vivo, iv, 300 ug, Cmax mean",8.42 ng/mL
same,Cmax,"[2]; male, human, in vivo, iv, 300 ug, Cmax range",6.76 to 12.3 ng/mL
same,oral F % mean,"[2]; male, human, in vivo, po, 600 ug",11.1%
same,AUC(0-t),"[2]; male, human, in vivo, po, 600 ug, AUC0-24 h mean",2.44 ng·h/mL
same,AUC(0-t),"[2]; male, human, in vivo, po, 600 ug, AUC0-24 h range",1.91 to 3.02 ng·h/mL
same,Cmax,"[2]; male, human, in vivo, po, 600 ug, Cmax mean",0.389 ng/mL
same,Cmax,"[2]; male, human, in vivo, po, 600 ug, Cmax range",0.303 to 0.5 ng/mL
